Structures can show the parent of a compound that is named as a salt.
Legend:
[1] = target: T1, human TYK2 kinase domain (JH1) (Homo sapiens, UniProt P29597); assay: JH1 biochemical assay for TYK2 (ADP-Glo kinase assay, recombinant JH1 catalytic domain, JAK3-974 peptide, 10 μM ATP)
T1 construct: recombinantly generated catalytic kinase (also known as JH1) domain of human JAK1, JAK2, JAK3 and TYK2
T1 sequence (P29597 897-1176 limits assumed): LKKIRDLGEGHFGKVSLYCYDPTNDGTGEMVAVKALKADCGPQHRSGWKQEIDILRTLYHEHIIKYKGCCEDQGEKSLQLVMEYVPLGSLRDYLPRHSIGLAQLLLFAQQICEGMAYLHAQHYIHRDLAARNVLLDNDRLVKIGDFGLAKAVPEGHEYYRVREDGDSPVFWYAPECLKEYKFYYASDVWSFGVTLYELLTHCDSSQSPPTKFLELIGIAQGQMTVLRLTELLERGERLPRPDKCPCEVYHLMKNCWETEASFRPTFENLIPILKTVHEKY
Procedure, shortened: (§1)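 Reactions ran 100 min with 50 μM substrate peptide (JAK3-342 for JAK1 at 4 nM enzyme; JAK3-974 for JAK2 0.2 nM, JAK3 0.3 nM, TYK2 2 nM), and ADP formed was read by ADP-Glo luminescence. Eleven-point 3-fold series from 10 or 1 μM; IC50 fitted by 4-parameter logistic model.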

[2] = target: T2, human JAK1 kinase domain (JH1) (Homo sapiens, UniProt P23458); assay: JH1 biochemical assay for JAK1 (ADP-Glo kinase assay, recombinant JH1 catalytic domain, JAK3-342 peptide, 35 μM ATP)
T2 construct: recombinantly generated catalytic kinase (also known as JH1) domain of human JAK1, JAK2, JAK3 and TYK2
T2 sequence (P23458 875-1153 limits assumed): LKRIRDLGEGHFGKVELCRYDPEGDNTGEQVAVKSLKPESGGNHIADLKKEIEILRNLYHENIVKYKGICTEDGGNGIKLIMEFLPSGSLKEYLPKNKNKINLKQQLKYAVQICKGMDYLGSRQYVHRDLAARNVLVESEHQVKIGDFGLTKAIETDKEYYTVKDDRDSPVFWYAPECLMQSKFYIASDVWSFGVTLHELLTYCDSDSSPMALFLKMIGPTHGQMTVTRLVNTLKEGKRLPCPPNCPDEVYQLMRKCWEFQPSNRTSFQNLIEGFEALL
Procedure, shortened: as §1

[3] = target: T3, human JAK2 kinase domain (JH1) (Homo sapiens, UniProt O60674); assay: JH1 biochemical assay for JAK2 (ADP-Glo kinase assay, recombinant JH1 catalytic domain, JAK3-974 peptide, 15 μM ATP)
T3 construct: recombinantly generated catalytic kinase (also known as JH1) domain of human JAK1, JAK2, JAK3 and TYK2
T3 sequence (O60674 849-1124 limits assumed): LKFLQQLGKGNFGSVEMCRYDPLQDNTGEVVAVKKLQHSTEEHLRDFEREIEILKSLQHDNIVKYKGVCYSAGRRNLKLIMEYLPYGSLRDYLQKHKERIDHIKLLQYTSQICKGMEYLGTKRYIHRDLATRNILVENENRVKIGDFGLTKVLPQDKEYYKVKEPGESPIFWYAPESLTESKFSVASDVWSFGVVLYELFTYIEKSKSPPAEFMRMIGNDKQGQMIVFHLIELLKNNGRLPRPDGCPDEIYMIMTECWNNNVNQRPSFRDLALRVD
Procedure, shortened: as §1

[4] = target: T4, human JAK3 kinase domain (JH1) (Homo sapiens, UniProt P52333); assay: JH1 biochemical assay for JAK3 (ADP-Glo kinase assay, recombinant JH1 catalytic domain, JAK3-974 peptide, 4 μM ATP)
T4 construct: recombinantly generated catalytic kinase (also known as JH1) domain of human JAK1, JAK2, JAK3 and TYK2
T4 sequence (P52333 822-1111 limits assumed): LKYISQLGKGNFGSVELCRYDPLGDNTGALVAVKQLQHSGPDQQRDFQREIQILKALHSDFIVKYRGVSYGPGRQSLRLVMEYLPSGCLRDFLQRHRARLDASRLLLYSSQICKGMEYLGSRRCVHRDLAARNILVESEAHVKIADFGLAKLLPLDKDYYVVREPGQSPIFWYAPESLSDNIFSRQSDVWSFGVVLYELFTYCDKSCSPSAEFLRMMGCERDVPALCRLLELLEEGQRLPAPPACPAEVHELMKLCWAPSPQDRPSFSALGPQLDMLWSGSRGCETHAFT
Procedure, shortened: as §1

SMILES: C[C@@H]1CN(c2ccnn3cc(-c4ccnn4C)cc23)C(=O)[C@]1(C#N)C1CC1 [Example 49, (3R,4S)-3-cyclopropyl-4-methyl-1-(6-(1-methyl-1H-pyrazol-5-yl)pyrrolo[1,2-b]pyridazin-4-yl)-2-oxopyrrolidine-3-carbonitrile]
- IC50 ([1]; JH1 kinase domain, ADP-Glo): 20 to 50 nM
- IC50 ([2]; JH1 kinase domain, ADP-Glo): 100 to 1000 nM
- IC50 ([3]; JH1 kinase domain, ADP-Glo): 1000 to 5000 nM
- IC50 ([4]; JH1 kinase domain, ADP-Glo): 1000 to 5000 nM

SMILES: Cc1nn(C)c(C)c1-c1cn2nccc2c(N2C[C@@H](C)[C@@](C#N)(C3CC3)C2=O)n1 [Example 200, (3R,4S)-3-cyclopropyl-4-methyl-2-oxo-1-(6-(1,3,5-trimethyl-1H-pyrazol-4-yl)pyrazolo[1,5-a]pyrazin-4-yl)pyrrolidine-3-carbonitrile]
- IC50 ([1]; JH1 kinase domain, ADP-Glo): 20 to 50 nM
- IC50 ([2]; JH1 kinase domain, ADP-Glo): 100 to 1000 nM
- IC50 ([3]; JH1 kinase domain, ADP-Glo): 1000 to 5000 nM
- IC50 ([4]; JH1 kinase domain, ADP-Glo): 100 to 1000 nM

SMILES: Cc1cnn(-c2cc3nccc(N4C[C@@H](C)[C@@](C#N)(C5CC5)C4=O)c3o2)c1 [Example 345, (3R,4S)-3-cyclopropyl-4-methyl-1-(2-(4-methyl-1H-pyrazol-1-yl)furo[3,2-b]pyridin-7-yl)-2-oxopyrrolidine-3-carbonitrile]
- IC50 ([1]; TYK2 JH1, ADP-Glo): 20 to 50 nM
- IC50 ([2]; JAK1 JH1, ADP-Glo): 1000 to 5000 nM
- IC50 ([3]; JAK2 JH1, ADP-Glo): 1000 to 5000 nM
- IC50 ([4]; JAK3 JH1, ADP-Glo): 1000 to 5000 nM

SMILES: C[C@@H]1CN(c2cc(-c3cnn(C(F)F)c3)cn3ncc(F)c23)C(=O)[C@]1(C#N)C1CC1 [Example 270, (3R,4S)-3-cyclopropyl-1-(6-(1-(difluoromethyl)-1H-pyrazol-4-yl)-3-fluoropyrazolo[1,5-a]pyridin-4-yl)-4-methyl-2-oxopyrrolidine-3-carbonitrile]
- IC50 ([1]; TYK2 JH1, ADP-Glo): 20 to 50 nM
- IC50 ([2]; JAK1 JH1, ADP-Glo): 1000 to 5000 nM
- IC50 ([3]; JAK2 JH1, ADP-Glo): 1000 to 5000 nM
- IC50 ([4]; JAK3 JH1, ADP-Glo): 1000 to 5000 nM

SMILES: C[C@@H]1CN(c2nc(-c3cccnc3OC(F)F)cn3nccc23)C(=O)[C@]1(C#N)C1CC1 [Example 256, (3R,4S)-3-cyclopropyl-1-(6-(2-(difluoromethoxy)pyridin-3-yl)pyrazolo[1,5-a]pyrazin-4-yl)-4-methyl-2-oxopyrrolidine-3-carbonitrile trifluoroacetate]
- IC50 ([1]; TYK2 JH1, ADP-Glo): > 100 nM
- IC50 ([2]; JAK1 JH1, ADP-Glo): > 10000 nM
- IC50 ([3]; JAK2 JH1, ADP-Glo): 1000 to 5000 nM
- IC50 ([4]; JAK3 JH1, ADP-Glo): 1000 to 5000 nM

SMILES: C[C@@H]1CN(c2nc(-c3cnn(C)c3)cc3nccn23)C(=O)[C@]1(C#N)C1CC1 [Example 269, (3R,4S)-3-cyclopropyl-4-methyl-1-(7-(1-methyl-1H-pyrazol-4-yl)imidazo[1,2-c]pyrimidin-5-yl)-2-oxopyrrolidine-3-carbonitrile]
- IC50 ([1]; TYK2 JH1, ADP-Glo): > 100 nM
- IC50 ([2]; JAK1 JH1, ADP-Glo): 1000 to 5000 nM
- IC50 ([3]; JAK2 JH1, ADP-Glo): 5000 to 10000 nM
- IC50 ([4]; JAK3 JH1, ADP-Glo): 1000 to 5000 nM

SMILES: COc1ncc(-c2cn3nccc3c(N3C[C@@H](C)[C@@](C#N)(C4CC4)C3=O)n2)cc1C#N [Example 262, 5-(4-((3R,4S)-3-cyano-3-cyclopropyl-4-methyl-2-oxopyrrolidin-1-yl)pyrazolo[1,5-a]pyrazin-6-yl)-2-methoxynicotinonitrile trifluoroacetate]
- IC50 ([1]; TYK2 JH1, ADP-Glo): 20 to 50 nM
- IC50 ([2]; JAK1 JH1, ADP-Glo): > 10000 nM
- IC50 ([3]; JAK2 JH1, ADP-Glo): > 10000 nM
- IC50 ([4]; JAK3 JH1, ADP-Glo): > 10000 nM

SMILES: C[C@@H]1CN(c2nc(-c3cccc(F)n3)cn3nccc23)C(=O)[C@]1(C#N)C1CC1 [Example 255, (3R,4S)-3-cyclopropyl-1-(6-(6-fluoropyridin-2-yl)pyrazolo[1,5-a]pyrazin-4-yl)-4-methyl-2-oxopyrrolidine-3-carbonitrile trifluoroacetate]
- IC50 ([1]; TYK2 JH1, ADP-Glo): 20 to 50 nM
- IC50 ([2]; JAK1 JH1, ADP-Glo): < 100 nM
- IC50 ([3]; JAK2 JH1, ADP-Glo): > 10000 nM
- IC50 ([4]; JAK3 JH1, ADP-Glo): 100 to 1000 nM

SMILES: COc1cc(-c2cn3nccc3c(N3C[C@@H](C)[C@@](C#N)(C4CC4)C3=O)n2)c(OC)nn1 [Example 253, (3R,4S)-3-cyclopropyl-1-(6-(3,6-dimethoxypyridazin-4-yl)pyrazolo[1,5-a]pyrazin-4-yl)-4-methyl-2-oxopyrrolidine-3-carbonitrile trifluoroacetate]
- IC50 ([1]; TYK2 JH1, ADP-Glo): 20 to 50 nM
- IC50 ([2]; JAK1 JH1, ADP-Glo): 1000 to 5000 nM
- IC50 ([3]; JAK2 JH1, ADP-Glo): > 10000 nM
- IC50 ([4]; JAK3 JH1, ADP-Glo): 5000 to 10000 nM

SMILES: COc1cc(-c2cc3c(N4C[C@@H](C)[C@@](C#N)(C5CC5)C4=O)ccnn3c2)c(F)cn1 [Example 94, (3R,4S)-3-cyclopropyl-1-(6-(5-fluoro-2-methoxypyridin-4-yl)pyrrolo[1,2-b]pyridazin-4-yl)-4-methyl-2-oxopyrrolidine-3-carbonitrile]
- IC50 ([1]; JH1 kinase domain, ADP-Glo): 20 to 50 nM
- IC50 ([2]; JH1 kinase domain, ADP-Glo): 1000 to 5000 nM
- IC50 ([3]; JH1 kinase domain, ADP-Glo): > 10000 nM
- IC50 ([4]; JH1 kinase domain, ADP-Glo): > 10000 nM

SMILES: Cc1cc(-c2cn3nccc3c(N3C[C@@H](C)[C@@](C#N)(C4CC4)C3=O)n2)ccn1 [Example 241, (3R,4S)-3-cyclopropyl-4-methyl-1-(6-(2-methylpyridin-4-yl)pyrazolo[1,5-a]pyrazin-4-yl)-2-oxopyrrolidine-3-carbonitrile trifluoroacetate]
- IC50 ([1]; TYK2 JH1, ADP-Glo): 50 to 100 nM
- IC50 ([2]; JAK1 JH1, ADP-Glo): 100 to 1000 nM
- IC50 ([3]; JAK2 JH1, ADP-Glo): 1000 to 5000 nM
- IC50 ([4]; JAK3 JH1, ADP-Glo): 1000 to 5000 nM

SMILES: Cn1cc(-c2cc3c(N4CCC(C#N)C4=O)ccnn3c2)cn1 (stereo not drawn) [Example 7, 1-(6-(1-methyl-1H-pyrazol-4-yl)pyrrolo[1,2-b]pyridazin-4-yl)-2-oxopyrrolidine-3-carbonitrile]
- IC50 ([1]; JH1 kinase domain, ADP-Glo): > 100 nM
- IC50 ([2]; JH1 kinase domain, ADP-Glo): > 10000 nM
- IC50 ([3]; JH1 kinase domain, ADP-Glo): 5000 to 10000 nM
- IC50 ([4]; JH1 kinase domain, ADP-Glo): 5000 to 10000 nM

SMILES: C[C@@H]1CN(c2ccnn3cc(-c4ncn(C)n4)cc23)C(=O)[C@]1(C#N)C1CC1 [Example 115, (3R,4S)-3-cyclopropyl-4-methyl-1-(6-(1-methyl-1H-1,2,4-triazol-3-yl)pyrrolo[1,2-b]pyridazin-4-yl)-2-oxopyrrolidine-3-carbonitrile trifluoroacetate]
- IC50 ([1]; JH1 kinase domain, ADP-Glo): > 100 nM
- IC50 ([2]; JH1 kinase domain, ADP-Glo): > 10000 nM
- IC50 ([3]; JH1 kinase domain, ADP-Glo): > 10000 nM
- IC50 ([4]; JH1 kinase domain, ADP-Glo): 5000 to 10000 nM

SMILES: C[C@@H]1CN(c2nc(-c3ccc(F)nc3)cn3nccc23)C(=O)[C@]1(C#N)C1CC1 [Example 243, (3R,4S)-3-cyclopropyl-1-(6-(6-fluoropyridin-3-yl)pyrazolo[1,5-a]pyrazin-4-yl)-4-methyl-2-oxopyrrolidine-3-carbonitrile trifluoroacetate]
- IC50 ([1]; TYK2 JH1, ADP-Glo): > 100 nM
- IC50 ([2]; JAK1 JH1, ADP-Glo): 1000 to 5000 nM
- IC50 ([3]; JAK2 JH1, ADP-Glo): > 10000 nM
- IC50 ([4]; JAK3 JH1, ADP-Glo): 1000 to 5000 nM

SMILES: Cc1ccc(-c2cc3c(N4C[C@@H](C)[C@@](C#N)(C5CC5)C4=O)ccnn3c2)nn1 [Example 137, (3R,4S)-3-cyclopropyl-4-methyl-1-(6-(6-methylpyridazin-3-yl)pyrrolo[1,2-b]pyridazin-4-yl)-2-oxopyrrolidine-3-carbonitrile trifluoroacetate]
- IC50 ([1]; JH1 kinase domain, ADP-Glo): 20 to 50 nM
- IC50 ([2]; JH1 kinase domain, ADP-Glo): 1000 to 5000 nM
- IC50 ([3]; JH1 kinase domain, ADP-Glo): 100 to 1000 nM
- IC50 ([4]; JH1 kinase domain, ADP-Glo): 100 to 1000 nM

SMILES: C[C@@H]1CN(c2ccnn3cc(-c4cnc5cnccn45)cc23)C(=O)[C@]1(C#N)C1CC1 [Example 116, (3R,4S)-3-cyclopropyl-1-(6-(imidazo[1,2-a]pyrazin-3-yl)pyrrolo[1,2-b]pyridazin-4-yl)-4-methyl-2-oxopyrrolidine-3-carbonitrile trifluoroacetate]
- IC50 ([1]; JH1 kinase domain, ADP-Glo): 20 to 50 nM
- IC50 ([2]; JH1 kinase domain, ADP-Glo): 100 to 1000 nM
- IC50 ([3]; JH1 kinase domain, ADP-Glo): 1000 to 5000 nM
- IC50 ([4]; JH1 kinase domain, ADP-Glo): 100 to 1000 nM

SMILES: CC(=O)Nc1cncc(-c2cn3nccc3c(N3C[C@@H](C)[C@@](C#N)(C4CC4)C3=O)n2)c1 [Example 249, N-(5-(4-((3R,4S)-3-cyano-3-cyclopropyl-4-methyl-2-oxopyrrolidin-1-yl)pyrazolo[1,5-a]pyrazin-6-yl)pyridin-3-yl)acetamide trifluoroacetate]
- IC50 ([1]; TYK2 JH1, ADP-Glo): > 100 nM
- IC50 ([2]; JAK1 JH1, ADP-Glo): > 10000 nM
- IC50 ([3]; JAK2 JH1, ADP-Glo): > 10000 nM
- IC50 ([4]; JAK3 JH1, ADP-Glo): 5000 to 10000 nM

SMILES: CC(O)c1ccc(-c2cc3c(N4C[C@@H](C)[C@@](C#N)(C5CC5)C4=O)ccnn3c2)nc1 (stereo partly drawn) [Example 130, (3R,4S)-3-cyclopropyl-1-(6-(5-(1-hydroxyethyl)pyridin-2-yl)pyrrolo[1,2-b]pyridazin-4-yl)-4-methyl-2-oxopyrrolidine-3-carbonitrile trifluoroacetate]
- IC50 ([1]; JH1 kinase domain, ADP-Glo): 5 to 20 nM
- IC50 ([2]; JH1 kinase domain, ADP-Glo): 100 to 1000 nM
- IC50 ([3]; JH1 kinase domain, ADP-Glo): 100 to 1000 nM
- IC50 ([4]; JH1 kinase domain, ADP-Glo): 100 to 1000 nM

— patent US20260297085A1, “1 H-PYRROLO[2,3-B]PYRIDIN-4-YL]-2-OXOPYRROLIDINE-3-CARBONITRILE DERIVATIVES AS TYROSINE KINASE 2 (TYK2) INHIBITORS FOR THE TREATMENT OF INFLAMMATORY DISEASES” (BIOGEN MA INC., priority 2023, published 2026)
